# Test results as given in article PMC7848139, “Novel Hybrid CHC from β-carboline and N-Hydroxyacrylamide Overcomes Drug-Resistant Hepatocellular Carcinoma by Promoting Apoptosis, DNA Damage, and Cell Cycle Arrest” (Frontiers in Pharmacology, 2021).
# Assays:
# Bel7402/5-FU cells = test: Cell apoptosis analysis by flow cytometry; assay type: cell-based, human; conditions: 72 h
# Description: Briefly, Bel7402/5-FU cells were cultured in DMEM at 37°C with 5% CO2 for 12 h. […] Then Bel7402/5-FU cells were collected and using APC-Annexin V and 7-AAD to stain these cells under the condition of 37°C for 15 min. Flow cytometry analysis (Calibur, BD, United States) decide the percentage of apoptotic cells according to APC signal (FL4) (excitation wavelength at 633 nm; emission wavelength at 660 nm) and 7-AAD staining signal (FL3) (excitation wavelength at 488 nm; emission wavelength at 647 nm). WinList 3D (7.1) analyzed the data and Excel 2016 plotted the histogram.
# FIGURE 5 CHC causes apoptosis of Bel7402/5-FU cells. […] The data (mean ± SD, percentage of apoptotic cells) represent the average of three separate experiments. *p < 0.01 vs. control.
# Bel7402/5-FU = test: MTT antiproliferative assay, Bel7402/5-FU; assay type: cell-based; conditions: Homo sapiens, drug-resistant HCC cells, 72 h, mean ± SD of three experiments, read-out: In vitro antiproliferative activity (IC50) Bel7402/5-FU
# Description: Briefly, appropriate cells (1 × 10^4 cells/mL) were placed into 96-well plates in 100 μL of DMEM medium overnight. Then adding 100 μL of evaluated compounds into individual well for 72 h while 0.1% DMSO aqueous solution was treated as the negative control. After incubation with 30 μl MTT (5 mg/mL) for 4 h in all well, and ELISA plate reader measured absorbance of each well at 570 nm. Then calculating cytotoxicity effect of evaluated compounds through the formula: Cell inhibitory percentage (%) = (1−OD of treatment group/OD of control) × 100%.
smiles,measurement,setting,value
"CN(C)c1ccc(-c2nc(C(=O)NCc3ccc(/C=C/C(=O)NO)cc3)cc3c2[nH]c2ccccc23)cc1 [CHC, (E)-N-(4-(3-(hydroxyamino)-3-oxoprop-1-en-1-yl)benzyl)-1-(4-dimethylaminophenyl)-9H-pyrido [3,4-b]indole-3-carboxamide]",rate of Annexin V+ Bel7402/5-FU cellular apoptosis,Bel7402/5-FU cells; 2.0 μM,42.3%
same,rate of Annexin V+ Bel7402/5-FU cellular apoptosis,Bel7402/5-FU cells; 5.0 μM,67.2%
same,IC50,Bel7402/5-FU,2170 ± 350 nM
